Patent EP0942911B1, “BENZOPYRANOPYRROLE AND BENZOPYRANOPYRIDINE ALPHA-1 ADRENERGIC COMPOUNDS” (Abbott Laboratories, priority 1996, dated 1998)
Where a name gives a salt, the structure may show the parent alone. Read-outs that look alike come from different tables or passages of the source.

Assays:
Assay in all cases: biochemical
α-1b adrenoreceptor = target: T1, α-1b adrenoreceptor (Mesocricetus auratus, UniProt P18841); format: binding, hamster; details: read-out: Radioligand Binding (Ki, nM) 1b (Hamster)
T1 sequence (P18841 1-515): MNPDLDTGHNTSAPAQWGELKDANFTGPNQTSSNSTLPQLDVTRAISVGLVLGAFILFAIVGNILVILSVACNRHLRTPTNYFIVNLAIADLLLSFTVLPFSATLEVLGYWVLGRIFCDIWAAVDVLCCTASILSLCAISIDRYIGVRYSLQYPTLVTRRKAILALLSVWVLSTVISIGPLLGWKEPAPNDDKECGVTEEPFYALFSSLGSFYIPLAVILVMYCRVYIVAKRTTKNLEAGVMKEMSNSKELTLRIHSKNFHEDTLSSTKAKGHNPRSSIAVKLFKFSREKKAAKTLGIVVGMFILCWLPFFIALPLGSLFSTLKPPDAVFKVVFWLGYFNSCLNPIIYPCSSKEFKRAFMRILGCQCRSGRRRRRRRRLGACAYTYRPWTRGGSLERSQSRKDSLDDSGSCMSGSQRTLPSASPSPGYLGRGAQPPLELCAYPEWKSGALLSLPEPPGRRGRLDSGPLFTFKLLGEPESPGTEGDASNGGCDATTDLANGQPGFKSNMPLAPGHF
Source text: (§1) The cDNA clones encoding the α-1 adrenoreceptors (α-1a, α-1b, and α-1d) were obtained from TULCO (Triangle Universities Licensing Consortium, Research Triangle Park, NC) and inserted into the eukaryotic expression vector SnaB30. In this vector, expression of the adrenoreceptor gene is under the transcriptional control of an SV40 early promoter. Positive drug selection is provided by a neomycin-resistance gene. Mouse fibroblast cells (LTK) were transfected with the α1 expression plasmids and grown in Dulbecco's modified Eagle's medium (DMEM) containing 10% fetal calf serum and 30 µM G418. Stable G418-resistant parental lines were generated, with successful expression of adrenoreceptor protein monitored using radioligand binding techniques. Stable single cell clones derived from the parental lines were screened in adrenoreceptor binding assays to identify clones having high adrenoreceptor density. Roller bottle cultures of the cloned lines were used to provide cell membranes for subsequent adrenoreceptor binding characterization studies. A cell line containing the SnaB30 vector expressing the human erythropoietin gene served as a negative control.
(§2) For adrenoreceptor binding assays, large scale membrane preparations were utilized in which 6 million cells were seeded into small (450 cm^2) Corning tissue culture roller bottles. 200 mL of DMEM containing 10% fetal calf serum and 300 µM G418 were added to each roller bottle. A 95% air / 5% CO2 gas mixture (sterile) was injected into each roller bottle prior to sealing. The bottles were then incubated at 37 °C on a roller rack for 5 days. Cells were re-fed with fresh medium after 3 days in culture.
(§3) On the fifth day of culture, growth medium was removed from cells grown in roller bottles, and the cells were washed twice with PBS (Sigma, 120 mM NaCl, 2.7 mM KCl, 10 mM Na2HPO4-NaH2PO4, pH = 7.4). Cells were detached from the roller bottles by incubating for 15 minutes at 37 °C in a Tris-EDTA solution (10 mM Tris, 100 mM NaCl, 1 mM EDTA, pH = 7.4). The cell suspension from each roller bottle was decanted into tared centrifuge tubes and kept on ice. An aliquot of each cell suspension was generally taken for cell counting. Cells were centrifuged at 3000 X G for 5 min at 2-4 °C, washed with PBS and recentrifuged. The supernatant was decanted and the pellet weighed to determine the wet weight of cells. Cells were washed a final time in 40 vol 5 mM Tris-HCl, 5 mM EDTA, pH = 7.7, and centrifuged at 40,000 X G for 10 minutes. Cells were homogenized in 10 mL of 50 mM Tris-HCl, 5 mM EDTA (pH = 7.4) and diluted to 40 mL/tube. Homogenates were centrifuged at 40,000 X G for 10 minutes. The supernatant was decanted and the pellets rehomogenized in 50 mM Tris-HCl (pH = 7.4) and centrifuged as before. The supernatant was decanted and the homogenate resuspended in 6.25 volumes (per gram wet weight) of 50 mM Tris-HCl and aliquots of the pooled homogenates frozen in liquid N2 and stored at -70 °C until the time of assay. Rat submaxillary glands were used for α-1A adrenoreceptors and were prepared essentially as described (Michel, A. D., Loury, D. N. and Whiting, R. L., Brit. J. Pharmacol. 98: 83-889 (1989)).
(§4) Receptor binding assays for α-1 adrenoreceptors were performed essentially as described by Greengrass and Bremner (Eur. J. Pharmacol. 55: 323-326 (1979)). […] Radioactivity was determined by standard liquid scintillation techniques. Data were analyzed as previously described (Hancock, A. A., Kyncl, J. J., Martin, Y. C. and DeBernardis, J. F., J. Receptor Res. 8: 23-46 (1988)).

[1] = target: T2, α-1A adrenoreceptor (rat submaxillary gland) (Rattus norvegicus, UniProt P43140); format: binding; details: read-out: Radioligand Binding (Ki, nM) 1A (Rat)
T2 sequence (P43140 1-466): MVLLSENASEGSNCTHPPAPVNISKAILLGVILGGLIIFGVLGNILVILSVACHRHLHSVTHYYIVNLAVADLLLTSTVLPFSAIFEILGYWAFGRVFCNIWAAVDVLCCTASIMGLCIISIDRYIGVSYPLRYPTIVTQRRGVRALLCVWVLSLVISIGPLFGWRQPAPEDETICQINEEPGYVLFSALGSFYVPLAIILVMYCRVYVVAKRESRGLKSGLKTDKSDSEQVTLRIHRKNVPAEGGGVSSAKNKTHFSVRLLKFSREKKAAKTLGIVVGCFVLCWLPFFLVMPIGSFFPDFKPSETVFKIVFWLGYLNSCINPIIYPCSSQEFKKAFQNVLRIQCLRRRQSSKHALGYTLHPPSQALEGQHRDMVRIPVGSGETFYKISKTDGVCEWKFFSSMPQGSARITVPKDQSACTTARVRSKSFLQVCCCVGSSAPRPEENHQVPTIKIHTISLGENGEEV
Procedure: Additionally, binding affinity against the pharrnacologically defined α-1A adrenoreceptor (rat submaxillary gland) was measured.
as §3, §4

α-1d adrenoreceptor = target: T3, α-1d adrenoreceptor (Rattus norvegicus, UniProt P23944); format: binding; details: read-out: Radioligand Binding (Ki, nM) 1d (Rat)
T3 sequence (P23944 1-561): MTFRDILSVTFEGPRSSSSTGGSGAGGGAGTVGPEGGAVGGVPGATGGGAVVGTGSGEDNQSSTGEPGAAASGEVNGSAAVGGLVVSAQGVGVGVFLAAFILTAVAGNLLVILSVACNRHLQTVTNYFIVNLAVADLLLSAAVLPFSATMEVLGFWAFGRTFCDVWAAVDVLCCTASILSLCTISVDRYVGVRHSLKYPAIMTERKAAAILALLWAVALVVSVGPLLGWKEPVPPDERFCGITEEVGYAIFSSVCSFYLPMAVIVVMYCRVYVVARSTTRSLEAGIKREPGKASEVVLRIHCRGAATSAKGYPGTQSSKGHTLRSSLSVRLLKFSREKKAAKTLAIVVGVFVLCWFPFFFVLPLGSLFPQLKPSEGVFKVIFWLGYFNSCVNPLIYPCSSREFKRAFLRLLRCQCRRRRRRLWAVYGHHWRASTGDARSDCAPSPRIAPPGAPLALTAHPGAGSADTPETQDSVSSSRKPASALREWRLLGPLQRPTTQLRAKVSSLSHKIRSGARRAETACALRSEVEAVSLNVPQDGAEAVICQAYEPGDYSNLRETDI
Source text: as §1, §2, §3, §4

α-1a adrenoreceptor = target: T4, α-1a adrenoreceptor (Bos taurus, UniProt P18130); format: binding, bovine; details: read-out: Radioligand Binding (Ki, nM) 1a (Bovine)
T4 sequence (P18130 1-466): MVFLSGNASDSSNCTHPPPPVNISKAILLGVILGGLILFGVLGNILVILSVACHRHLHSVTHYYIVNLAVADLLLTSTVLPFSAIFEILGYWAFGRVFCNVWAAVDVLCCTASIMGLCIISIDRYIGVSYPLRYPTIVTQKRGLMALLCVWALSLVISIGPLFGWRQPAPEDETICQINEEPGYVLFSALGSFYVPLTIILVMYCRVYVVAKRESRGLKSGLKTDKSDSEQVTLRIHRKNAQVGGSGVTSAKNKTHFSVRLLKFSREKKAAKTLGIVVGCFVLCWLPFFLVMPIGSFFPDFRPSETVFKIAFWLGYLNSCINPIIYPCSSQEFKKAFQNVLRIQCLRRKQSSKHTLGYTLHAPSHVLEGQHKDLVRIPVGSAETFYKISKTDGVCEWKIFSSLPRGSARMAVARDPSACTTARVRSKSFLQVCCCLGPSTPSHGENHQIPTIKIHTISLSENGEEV
Source text: as §1, §2, §3, §4

[2] = [3H]-prazosin radioligand, cloned receptor in LTK cell membranes
[3] = [3H]-prazosin radioligand, rat submaxillary gland membranes

Structure (SMILES)	Ki (α-1b adrenoreceptor)	Ki [1]	Ki (α-1d adrenoreceptor)	Ki (α-1a adrenoreceptor)	Ki (α-1b adrenoreceptor; [2])	Ki [1, 3]	Ki (α-1d adrenoreceptor; [2])	Ki (α-1a adrenoreceptor; [2])
COc1cc2[nH]c(=O)n(CCCCN3C[C@@H]4COc5cccc(OC)c5[C@@H]4C3)c(=O)c2cc1OC (racemic) [Example 79, 3-[4-((±)-cis-9-Methoxy-1,2,3,3a,4,9b-hexahydro-[1]-benzopyrano[3,4-c]pyrrol-2-yl)butyl]-6,7-dimethoxy-quinazoline-2,4(1H,3H)-dione hydrochloride]	0.821 nM	0.199 nM	0.361 nM	0.174 nM				
COc1cccc2c1[C@@H]1CN(CCCCn3c(=O)[nH]c4c(sc5ncc(Cl)nc54)c3=O)C[C@@H]1CO2 [Example 16, 3-[4-((3aR,9bR)-cis-9-Methoxy-1,2,3,3a,4,9b-hexahydro-[1]-benzopyrano[3,4-c]pyrrol-2-yl)butyl]-8-chloro-pyrazino[2',3':4,5]thieno[3,2-d]pyrimidine-2,4(1H,3H)-dione hydrochloride]					8.64 nM	0.373 nM	0.729 nM	0.073 nM
COc1cccc2c1[C@H]1CN(CCCCn3c(=O)[nH]c4c(sc5ncc(Cl)nc54)c3=O)C[C@@H]1CO2 [Example 10, 3-[4-((3aR,9bS)-trans-9-Methoxy-1,2,3,3a,4,9b-hexahydro-[1]-benzopyrano[3,4-c]pyrrol-2-yl)butyl]-8-chloro-pyrazino[2',3':4,5]thieno[3,2-d]pyrimidine-2,4(1H,3H)-dione hydrochloride]					10.4 nM	0.662 nM	1.6 nM	0.406 nM
COc1cccc2c1[C@@H]1CN(CCCCCn3c(=O)[nH]c4c(sc5ccccc54)c3=O)C[C@H]1CO2 [Example 23, 3-[5-((3aS,9bR)-trans-9-Methoxy-1,2,3,3a,4,9b-hexahydro-[1]-benzopyrano[3,4-c]pyrrol-2-yl)pentyl]-[1]benzthieno[3,2-d]pyrimidine-2,4(1H,3H)-dione hydrochloride]					0.973 nM	0.743 nM	0.639 nM	0.046 nM
COc1cccc2c1[C@H]1CCN(CCCn3c(=O)[nH]c4c(sc5cccnc54)c3=O)C[C@@H]1CO2 [Example 93, 3-[3-((4aR,10bS)-trans-10-Methoxy-1,3,4,4a,5,10b-hexahydro-2H-[1]-benzopyrano[3,4-c]pyrido-3-yl)propyl]-pyrido[2',3':4,5]thieno[3,2-d]pyrimidine-2,4(1H,3H)-dione dihydrochloride]					3.67 nM	4.04 nM	11.5 nM	1.2 nM
COc1cccc2c1[C@@H]1CN(CCCCn3c(=O)[nH]c4c(sc5ncc(-c6cccnc6)nc54)c3=O)C[C@H]1CO2 [Example 60, 3-[4-((3aS,9bR)-trans-9-Methoxy-1,2,3,3a,4,9b-hexahydro-[1]-benzopyrano[3,4-c]pyrrol-2-yl)butyl]-8-(3-pyridyl)-pyrazino[2',3':4,5]thieno[3,2-d]pyrimidine-2,4(1H,3H)-dione dihydrochloride]					14.2 nM	0.187 nM	1.82 nM	0.078 nM
COc1cc2[nH]c(=O)n(CCCCN3C[C@@H]4COc5ccccc5[C@H]4C3)c(=O)c2cc1OC (racemic) [Example 80, 3-[4-((±)-trans-1,2,3,3a,4,9b-hexahydro-[1]-benzopyrano[3,4-c]pyrrol-2-yl)butyl]-6,7-dimethoxy-quinazoline-2,4(1H,3H)-dione hydrochloride]	2.5 nM	0.442 nM	0.765 nM	0.17 nM				
COc1cccc2c1[C@@H]1CN(CCCCn3c(=O)[nH]c4c(sc5ccccc54)c3=O)C[C@@H]1CO2 [Example 22, 3-[4-((3aR,9bR)-cis-9-Methoxy-1,2,3,3a,4,9b-hexahydro-[1]-benzopyrano[3,4-c]pyrrol-2-yl)butyl]-[1]benzthieno[3,2-d]pyrimidine-2,4(1H,3H)-dione hydrochloride]					1.16 nM	0.196 nM	0.138 nM	0.031 nM
